Laboratory results from patent publication US10045530B2, “Agricultural pheromone compositions comprising positional isomers” (PROVIVI, INC., priority 2015, dated 2018).
Like-named read-outs stand apart in the source and are kept apart here.

Legend:
LadA = target: T1, LadA (Geobacillus thermodenitrificans, UniProt A4IU28); conditions: terminal hydroxylation; by alkane/FA chain length; cited from earlier work
T1 sequence (A4IU28 1-440): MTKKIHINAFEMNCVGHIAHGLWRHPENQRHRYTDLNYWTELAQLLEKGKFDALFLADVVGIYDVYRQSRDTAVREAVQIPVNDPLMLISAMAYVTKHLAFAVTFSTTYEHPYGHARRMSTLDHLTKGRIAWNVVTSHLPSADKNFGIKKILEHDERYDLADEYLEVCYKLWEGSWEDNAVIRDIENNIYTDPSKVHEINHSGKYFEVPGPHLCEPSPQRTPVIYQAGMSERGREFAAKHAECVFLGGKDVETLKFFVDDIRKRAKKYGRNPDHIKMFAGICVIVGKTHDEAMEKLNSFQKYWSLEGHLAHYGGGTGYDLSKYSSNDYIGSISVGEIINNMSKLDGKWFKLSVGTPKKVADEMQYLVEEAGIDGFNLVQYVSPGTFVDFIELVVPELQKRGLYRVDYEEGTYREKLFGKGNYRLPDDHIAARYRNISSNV

CYP52A3 = target: T2, CYP52A3 (Candida maltosa, UniProt P16496); conditions: terminal hydroxylation; by alkane/FA chain length; cited from earlier work
T2 sequence (P16496 2-523 limits assumed): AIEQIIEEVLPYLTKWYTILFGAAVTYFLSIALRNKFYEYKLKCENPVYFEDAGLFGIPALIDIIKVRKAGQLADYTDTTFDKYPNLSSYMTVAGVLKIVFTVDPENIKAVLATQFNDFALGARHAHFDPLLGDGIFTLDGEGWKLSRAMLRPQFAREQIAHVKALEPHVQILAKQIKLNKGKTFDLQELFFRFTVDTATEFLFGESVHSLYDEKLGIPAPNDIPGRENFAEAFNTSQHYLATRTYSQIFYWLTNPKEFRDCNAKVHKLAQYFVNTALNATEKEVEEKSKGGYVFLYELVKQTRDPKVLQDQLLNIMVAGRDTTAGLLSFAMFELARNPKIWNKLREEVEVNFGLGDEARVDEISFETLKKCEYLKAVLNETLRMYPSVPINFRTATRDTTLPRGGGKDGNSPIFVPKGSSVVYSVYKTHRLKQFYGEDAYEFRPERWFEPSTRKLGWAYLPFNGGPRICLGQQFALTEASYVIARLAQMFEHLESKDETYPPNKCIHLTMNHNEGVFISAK

CYP52A4 = target: T3, CYP52A4 (Candida maltosa, UniProt P16141); conditions: terminal hydroxylation; by alkane/FA chain length; cited from earlier work
T3 sequence (P16141 1-538): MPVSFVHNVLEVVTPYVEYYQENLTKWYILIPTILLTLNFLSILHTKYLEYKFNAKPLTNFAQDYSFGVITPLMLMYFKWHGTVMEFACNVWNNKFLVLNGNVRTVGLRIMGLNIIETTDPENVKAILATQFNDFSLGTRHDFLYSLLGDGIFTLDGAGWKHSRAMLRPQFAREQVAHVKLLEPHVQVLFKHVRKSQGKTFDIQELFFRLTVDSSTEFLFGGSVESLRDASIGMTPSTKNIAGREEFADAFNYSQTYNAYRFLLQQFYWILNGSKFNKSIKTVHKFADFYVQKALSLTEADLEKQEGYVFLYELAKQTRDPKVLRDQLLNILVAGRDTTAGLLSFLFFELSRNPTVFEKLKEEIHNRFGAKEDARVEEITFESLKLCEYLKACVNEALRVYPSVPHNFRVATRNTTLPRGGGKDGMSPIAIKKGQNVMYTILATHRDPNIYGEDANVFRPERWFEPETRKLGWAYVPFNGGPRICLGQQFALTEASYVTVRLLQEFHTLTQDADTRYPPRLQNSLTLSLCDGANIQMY

CYP52A21 = conditions: cited from earlier work
AlkB P. putida GPo1 = target: T4, AlkB P. putida GPo1 (Ectopseudomonas oleovorans, UniProt P12691); conditions: terminal hydroxylation; by alkane/FA chain length; cited from earlier work
T4 sequence (P12691 1-401): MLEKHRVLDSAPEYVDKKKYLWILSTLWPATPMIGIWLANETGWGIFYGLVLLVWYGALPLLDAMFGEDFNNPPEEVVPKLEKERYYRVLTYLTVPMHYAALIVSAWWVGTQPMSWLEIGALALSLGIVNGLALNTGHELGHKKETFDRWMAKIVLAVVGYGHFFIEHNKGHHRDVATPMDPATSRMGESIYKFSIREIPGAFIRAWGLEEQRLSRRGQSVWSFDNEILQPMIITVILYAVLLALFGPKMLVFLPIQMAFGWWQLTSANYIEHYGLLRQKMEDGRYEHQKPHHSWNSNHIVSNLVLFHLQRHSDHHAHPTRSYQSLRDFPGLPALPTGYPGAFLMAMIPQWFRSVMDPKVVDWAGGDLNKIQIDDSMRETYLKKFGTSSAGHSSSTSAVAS

alkB2 Gordonia sp TF6 = conditions: terminal hydroxylation; 100% relative activity obtained with hexane; cited from earlier work
CYP153A6 = conditions: cited from earlier work
CYP153A16 = conditions: cited from earlier work
CYP153A P. sp. = conditions: cited from earlier work
Helicoverpa zea = experiment: Wind tunnel bioassay: upwind flight and lure location of male moths; format: in vivo; conditions: conclusions from 8.1-8.2
Method: Four separate experiments were conducted with the moth Helicoverpa zea and its respective pheromone components (Z-11-hexadecenal, Z-9-hexadecenal). Further, the addition of Z-5-hexadecenal, the positional isomer of the natural insect Z-11-hexadecenal pheromone, was also added to the Z-11 and Z-9 blends and tested. Upwind flight and lure location of male moths were compared for: natural ratios of pheromone (97% Z-11-hexadecenal with 3% of Z-9-hexadecenal) with and without addition of the Z-5-hexadecenal positional isomer at various ratios.
Moths (4-6 day-old males in second half of scotophase) were flown in a glass wind tunnel (120×30×30 cm). A fan pushed air into the wind tunnel at 0.4 m sec^−1 and a second fan exhausted air at a similar rate. To provide visual cues for navigation, the floor was covered with light colored construction paper on which small (2-5 cm) circles were drawn with marker (Experiment 1) or light colored circles that were cut from light colored construction paper were placed on the floor (Experiments 2-4). Lures were made with Soxhlet-extracted, grey-rubber septa from West. […]
A moth in a release cage was held on a platform 20 cm above the floor for 15 s in the plume of pheromone and then released by turning open end of the cage toward upwind. […] Flights were recorded on video and data were collected from videos. […]

[1] = terminal hydroxylation, by alkane/FA chain length

Compound	Relative activity, LadA (Feng et al., 2007, Proc. Natl. Acad. Sci. U.S.A. 104: 5602-5607) (LadA)	Relative activity, CYP52A3 (Scheller et al., 1996, Arch. Biochem Biophys. 328: 245-254) (CYP52A3)	Relative activity, CYP52A4 (Scheller et al., 1996, Arch. Biochem Biophys. 328: 245-254) (CYP52A4)	Relative activity, alkB2 Gordonia sp TF6 (Fujii et al., 2004, Biosci. Biotechnol. Biochem. 68: 2171-2177) (alkB2 Gordonia sp TF6) [%]	further results
CCCCCCCCCCCCCCCCCCCCCC [C22]	74				
CCCCCCCCCCCCCCCC(=O)O [C16 FA (Palmetic)]		35	18		Relative activity, CYP52A21 (Kim et al., 2007, Arch. Biochem. Biophys. 464: 213-220) (CYP52A21; [1]): 29
CCCCCCCCCCCCCCCC [C16]	100	100	33		
CCCCCCCCC [C9]				63	Relative activity, AlkB P. putida GPo1 (Vanbeilen et al., 1994, Enzyme Microb. Technol. 16: 904-911) (AlkB P. putida GPo1): 100; Relative activity, CYP153A6 (Funhoff et al., 2006, J. Bacteriol. 188: 5220-5227) (CYP153A6): 82; Relative activity, CYP153A16 (Scheps et al., 2011, Org. Biomol. Chem. 9: 6727-6733) (CYP153A16): 29; Relative activity, CYP153A P. sp. (Scheps et al., 2011, Org. Biomol. Chem. 9: 6727-6733) (CYP153A P. sp.): 69
CCCCCCCC [C8]				72	Relative activity, AlkB P. putida GPo1 (Vanbeilen et al., 1994, Enzyme Microb. Technol. 16: 904-911) (AlkB P. putida GPo1): 95; Relative activity, CYP153A6 (Funhoff et al., 2006, J. Bacteriol. 188: 5220-5227) (CYP153A6): 100; Relative activity, CYP153A16 (Scheps et al., 2011, Org. Biomol. Chem. 9: 6727-6733) (CYP153A16): 100; Relative activity, CYP153A P. sp. (Scheps et al., 2011, Org. Biomol. Chem. 9: 6727-6733) (CYP153A P. sp.): 100
CCCCCCCCCCCCCCCCCC(=O)O [C18 FA (Stearic)]		30	1		
CCCCCCCCCC/C=C\CCCC=O [Z-5-hexadecedenal, Z-5-hexadecenal]					upwind flight response (Helicoverpa zea): triggers a similar upwind flight response
CCCCCCCCCCCCCCC [C15]	83				
CCCCCCCCCCCCCCCCCC [C18]	78	48	20		
CCCCCCCCCCCCCC(=O)O [C14 FA (Myristic)]					Relative activity, CYP52A21 (Kim et al., 2007, Arch. Biochem. Biophys. 464: 213-220) (CYP52A21): 86
CCCCCCCCCCCC [C12]		41	37	34	
CCCCCCCCCC [C10]				66	Relative activity, AlkB P. putida GPo1 (Vanbeilen et al., 1994, Enzyme Microb. Technol. 16: 904-911) (AlkB P. putida GPo1): 60; Relative activity, CYP153A6 (Funhoff et al., 2006, J. Bacteriol. 188: 5220-5227) (CYP153A6): 23; Relative activity, CYP153A16 (Scheps et al., 2011, Org. Biomol. Chem. 9: 6727-6733) (CYP153A16): 13; Relative activity, CYP153A P. sp. (Scheps et al., 2011, Org. Biomol. Chem. 9: 6727-6733) (CYP153A P. sp.): 60
CCCCCCCCCCCC(=O)O [C12 FA (lauric)]		20	100		Relative activity, CYP52A21 (Kim et al., 2007, Arch. Biochem. Biophys. 464: 213-220) (CYP52A21; [1]): 100
CCCCCCCCCCCCCCCCCCCCCCCC [C24]	65				
CCCCCCCCCCC [C11]				48	Relative activity, AlkB P. putida GPo1 (Vanbeilen et al., 1994, Enzyme Microb. Technol. 16: 904-911) (AlkB P. putida GPo1): 6; Relative activity, CYP153A6 (Funhoff et al., 2006, J. Bacteriol. 188: 5220-5227) (CYP153A6): 1; Relative activity, CYP153A16 (Scheps et al., 2011, Org. Biomol. Chem. 9: 6727-6733) (CYP153A16): <8; Relative activity, CYP153A P. sp. (Scheps et al., 2011, Org. Biomol. Chem. 9: 6727-6733) (CYP153A P. sp.): <6
